“Also recorded” adds a separate entry of the source.
Tests used:
[1] = SOD activity (catalytic decomposition of superoxide anion radical), cytochrome C assay; format: biochemical
Procedure: (§1) SOD activity (enzyme-like catalytic decomposition of superoxide anion radical) of the corroles 1C-Fe, 6C-Fe, 1C-Mn, 1C-Cu, 2C-Mn and 3C-Mn was examined via the cytochrome C assay. The catalytic rate constants for decomposition of peroxynitrite (PN) by the newly prepared iron corrole 6C-Fe and manganese corrole 3C-Mn were determined via stopped-flow kinetics as previously described for corroles 1C-Fe, 1C-Mn, and 2C-Mn (Mahammed and Gross, 2006; Gershman et al., 2007). These tests are performed in order to estimate how electronic and structural variables affect reactivity, which is a crucial factor for design of new complexes.

cleaved caspase-3 = test: Cleaved caspase-3 level in 6-OHDA-treated SH-SY5Y cells, immunofluorescence; format: cell-based, human; settings: 20 μM, 30 min before 6-OHDA (40 μM), 24 h
Procedure: (§2) SH-SY5Y cells were pretreated with or without corroles 1C-Fe, 2C-Mn and 3C-Mn and porphyrins 1P-Fe and 2P-Mn (20 μM), 30 min before exposure to 6-OHDA (40 μM) for a subsequent 24 h period. Cell viability was evaluated by MTT test and cell death was assessed using the apoptotic cell death detection ELISA kit. For neurorescue, SH-SY5Y cells were first exposed to 40 μM 6-OHDA for 0.5. 1, 1.5 and 3 h, followed by the addition of the compounds 1C-Fe, 2C-Mn and 3C-Mn (20 μM) and incubated for further 24 h. Growth-associated protein (GAP-43) was detected by fluorescence microscopy using a specific primary antibody. Apoptotic nuclei were determined by terminal deoxynucleotidyl transferase-mediated UTP-digoxigenin nick end labeling analysis. 4′,6-Diamidino-2-phenylnidole (DAPI) staining was applied for nuclear labeling. […]
Since 6-OHDA is also known to induce apoptosis in various cell types, including SH-SY5Y (von Coelln et al. 2001; Nie et al. 2002; Shimizu et al. 2002; Jordan et al. 2004), we further tested effect of corroles on the levels of the apoptotic marker, cleaved caspase-3, a major executer of the mitochondrial intrinsic pathway of apoptosis.

[2] = Peroxynitrite decomposition rates by manganese corroles (Example 2); format: biochemical; settings: 385 μM peroxynitrite, pH 7.4, 25° C., absorbance at 302 nm; Table 2
Procedure: The investigations were performed by examining the decay of 385 μM peroxynitrite at pH 7.4 and 25° C. in the presence and absence of various amounts of Mn corrole catalysts 2C-Mn, 2C′-Mn, 2C″-Mn, 3C-Mn and 4C-Mn. The differences between 2C-Mn, 2C′-Mn, and 2C″-Mn is in the identity of the 10-aryl group, which is C6F5, para-anisyl, and phenyl, respectively. The results (one example using 4C-Mn is shown in FIG. 1) were obtained by monitoring changes in absorbance at 302 nm, the λmax of peroxynitrite. The catalytic performances of five of the above compounds were tested; and the thus elucidated kcat values are presented in Table 2. Importantly, in sharp contrast with the corroles, none of the structurally similar manganese (III) porphyrin complexes affected the decomposition of peroxynitrite by any extent (not shown).

SH-SY5Y cells [3] = test: Neuroprotection/neurorescue against SIN-1-induced cell death in SH-SY5Y cells; format: cell-based, human
Procedure: SH-SY5Y cells were cultured in DMEM-Eagle/F-12(HAM) (1:1) containing 10% FCS. Cells were resuspended in medium containing 2% FCS, seeded in microtiter plates (96 wells) and allowed to attach for 24 h before initiation of treatment. […]

SH-SY5Y cells [4] = format: cell-based; settings: 20 μM
Procedure: SH-SY5Y cells were cultured in DMEM-Eagle/F-12(HAM) (1:1) containing 10% FCS. Cells were resuspended in medium containing 2% FCS, seeded in microtiter plates (96 wells) and allowed to attach for 24 h. To examine the neuroprotective effect, cells were pretreated for 30 min with corroles 1C-Fe and 5C-Fe (1-20 μM), and were then exposed to 6-OHDA (60 μM) for further 24 h. For neurorescue assessment, SH-SY5Y cells were first treated with 6-OHDA (60 μM) for 0.5 h, 1.5 h, 3 h and 6 h followed by the addition of compounds 1C-Fe and 5C-Fe (10 μM) for further 24 h.
as §2

[5] = Catalytic decomposition of peroxynitrite (PN), stopped-flow kinetics (Table 1); format: biochemical
Procedure: as §1

[6] = Rescuing DMSO from damage attributed to the hydroxyl radical (Fenton reaction); format: biochemical; settings: for Yield (%) or amount of product (Formaldehyde): substrate DMSO
Text: Corrole complexes were examined with respect to their efficiency of rescuing DMSO from damage attributed to the hydroxyl radical, formed via the Fenton reaction that also involves superoxide anion radical and hydrogen […]. It also mimics reaction occurring in biological systems that are exposed to metal toxicity, the situation that occurs in diseases caused by brain iron accumulation.

nitrotyrosine (Ntyr) = test: SIN-1-induced cellular protein nitration, nitrotyrosine immunofluorescence in SH-SY5Y cells; format: cell-based, human; settings: 20 μM corrole, SIN-1 700 μM, 24 h
Procedure: To determine the effect of the corroles on SIN-1-induced cellular protein nitration, SH-SY5Y neuroblastoma cells were treated with SIN-1 (700 μM) in the absence or presence of 20 μM of the corroles 1C-Fe, 2C-Mn, and 3C-Mn. Protein nitration was detected by immunofluorescence analysis using a monoclonal antibody against nitrotyrosine (Ntyr), a biological marker of peroxynitrite.

SH-SY5Y cells [7] = format: cell-based; settings: up to 50 μM; data not shown
RIN-m cells [8] = test: Protection of RIN-m cells against SIN-1 toxicity (MTT); format: cell-based, rat; settings: 0.1-20 μM, 30 min before SIN-1 (800 μM), 24 h
Procedure: INS-1E cells or RIN-m cells were cultured in RPMI with low serum content (2% FCS), placed in microtiter plates (96 wells) at a density of 2.5×10^4 cells/well and allowed to attach for 24 h before treatment. Corroles 1C-Fe and 5C-Fe (10 μM) were added 30 min prior to insult with the nitric oxide donor SIN-1 (500 or 600 μM) for a subsequent 24 h period. Cell viability was evaluated by a colorimetric assay for mitochondrial function using 3-(4,5-dimethylthiazol-2-yl)-2,5-diphenyltetrazolium bromide (MTT test), and expressed as percentage of untreated control. Values higher than 100% reflect increased mitochondrial activity induced by the drug. The results represent the mean±SEM of three independent experiments performed under the same conditions.
Insulin-secreting RIN-m cells were incubated in RPMI with low serum content (2% FCS) and placed in microtiter plates (96 wells) at a density of 2.5×10^4 cells/well and allowed to attach for 24 h before treatment. Cells were treated with corroles 1C-Fe, 1C-Mn or 2C-Mn or porphyrins 1P-Fe or 2P-Mn, in various concentrations (0.1-20 μM), for 30 min prior to insult with SIN-1 (800 μM) for a subsequent 24 h period. Cell viability was evaluated by MTT test and expressed as percentage of untreated control.

RIN-m cells [9] = test: Protection of RIN-m beta cells against H2O2 toxicity (MTT); format: cell-based, rat; settings: H2O2 150 μM
Procedure: Two insulin-secreting beta cell lines, rat insulinoma (INS-1E) and RIN-m cells, were used to examine the protective effect of corrole 1C-Fe. The cells were cultured at 37° C., in a humid 5% CO2, 95% air environment in regular RPMI-1640 medium (Invitrogen) supplemented with 5% fetal calf serum (FCS).
After 2 days of culture, RIN-m cells (5×10^4 cells/well in 96-well plates) were treated with corrole 1C-Fe (1-50 μM) before addition of 35 μM of H2O2. Cell viability was evaluated by a colorimetric assay for mitochondrial function estimation using the MTT test as previously described (Gassen et al., 1998) and expressed as percentage of control.
RIN-m cells were grown as described in Example 5. After 3 days of culture, RIN-m cells (2.5×10^4 cells/well in 96-well plates) were treated with corroles 1C-Fe or 5C-Fe or porphyrin 1P-Fe (1 and 20 μM), added 30 min prior to treatment with 35 μM H2O2 and further incubated for 24 h. Cell injury was evaluated by MTT test. […] […].
Protective effect of iron(III) corrole complexes against H2O2-induced toxicity (150 μM) was compared to that of manganese(III) corroles and related porphyrin. […].

[10] = 30 min before 6-OHDA (40 μM), 24 h
[11] = CuSO4/ascorbate, no additive 44 μM
[12] = CuSO4/glutathione, no additive 11 μM

SMILES: COc1c(F)c(F)c(C2=C3C=CC4=[N+]3[Fe-]35[n]6c(cc(S(=O)(=O)O)c62)-c2c(S(=O)(=O)O)cc([n]23)C(c2c(F)c(F)c(OC)c(F)c2F)=c2ccc([n]25)=C4c2c(F)c(F)c(OC)c(F)c2F)c(F)c1F (centres unmarked) [6C-Fe, 2,17-bis-sulfonato-5,10,15-tris(p-methoxy-tetra-fluorophenyl)iron(III) corrole]
- IC50 [1]: 1.18 µM

SMILES: C[n+]1ccccc1C1=C2C=CC3=[N+]2[Mn-]24[n]5c1ccc5-c1ccc([n]12)C(c1cccc[n+]1C)=c1ccc([n]14)=C3c1cccc[n+]1C (centres unmarked) [3C-Mn, 5,10,15-tris(N-methyl-2-pyridilium)corrolato manganese(III)]
- 6-OHDA-induced increase of cleaved caspase-3 (cleaved caspase-3): totally
- kcat, peroxynitrite decomposition rate [2]: 25000 M⁻¹ s⁻¹
- cytoprotection against different SIN-1 concentrations (SH-SY5Y cells [3]; 25 μM corrole, FIG. 12C): protect cells against different SIN-1 concentrations
- protection against SIN-1 (MTT reduction analysis and ELISA assay) (SH-SY5Y cells [3]; 30 min before SIN-1, 24 h (Example 12)): protect, in a dose-dependent manner; also recorded: more effective not only than 2C-Mn
- protection against 6-OHDA compared with porphyrins 1P-Fe and 2P-Mn (SH-SY5Y cells [4]; 6-OHDA 40 μM, immunofluorescence): remarkable superiority over the porphyrins
- 6-OHDA-induced cytotoxicity (MTT, cell death ELISA) (SH-SY5Y cells [4]; [10]): significantly attenuated 6-OHDA-induced cytotoxicity
- cell mortality, morphology and apoptotic nuclei (GAP-43 immunofluorescence, TUNEL, DAPI) (SH-SY5Y cells [4]; [10]): significantly attenuated 6-OHDA-induced cell mortality, improved cell morphology and reduced the number of apoptotic nuclei
- kcat, catalytic rate constant for decomposition of PN [5]: 25000 M⁻¹ s⁻¹
- Yield (%) or amount of product (Formaldehyde) [6, 11]: 0 µM
- Yield (%) or amount of product (Formaldehyde) [6, 12]: 0 µM
- preventing oxidative damage / protection against metal-induced oxidation of substrates ([6]; summary of Table 3): protect better than corrole 1C-Mn
- IC50 [1]: 3.27 µM
- nitrotyrosine (Ntyr) staining, SIN-1-induced (nitrotyrosine (Ntyr)): totally abolished
- preventing H2O2-mediated cytotoxicity (SH-SY5Y cells [7]): not effective

SMILES: COc1ccc(C2=c3ccc4[n]3[Mn-]35[n]6c(ccc6-c6ccc([n]63)C=4c3cc[n+](C)cc3)C(c3cc[n+](C)cc3)=C3C=CC2=[N+]35)cc1 (centres unmarked) [2C′-Mn]
- kcat, peroxynitrite decomposition rate [2]: 77000 M⁻¹ s⁻¹

SMILES: O=S(=O)(O)c1cc2[n]3c1C(c1c(F)c(F)c(F)c(F)c1F)=C1C=CC4=[N+]1[Mn-]31[n]3c(cc(S(=O)(=O)O)c3-2)C(c2c(F)c(F)c(F)c(F)c2F)=c2ccc([n]21)=C4c1c(F)c(F)c(F)c(F)c1F (centres unmarked) [1C-Mn, 2,17-bis(sulfonato)-5,10,15-tris(pentafluorophenyl)-corrolato manganese(III)]
- kcat, catalytic rate constant for decomposition of PN [5]: 40000 M⁻¹ s⁻¹
- Yield (%) or amount of product (Formaldehyde) [6, 11]: 20 µM
- Yield (%) or amount of product (Formaldehyde) [6, 12]: 7 µM
- IC50 [1]: 5.9 µM
- protective effect against SIN-1 induced toxicity (MTT), comparative (RIN-m cells [8]): ineffective
- cytoprotective effect against H2O2-induced toxicity (RIN-m cells [9]): totally inefficient; also recorded: inefficiency

SMILES: C[n+]1ccc(C2=C3C=CC4=[N+]3[Mn-]35[n]6c2ccc6C(c2c(F)c(F)c(F)c(F)c2F)=C2C=CC(=[N+]23)C(c2cc[n+](C)cc2)=c2ccc([n]25)=C4c2c(F)c(F)c(F)c(F)c2F)cc1.[I-].[I-] (centres unmarked) [2P-Mn, 5,15-bis(N-methyl-4-pyridilium)-10,20-bis-(pentafluoro-phenyl)porphyrinato manganese(III) diiodide salt, reference compound]
- cytoprotective effect against H2O2-induced toxicity (RIN-m cells [9]): totally inefficient; also recorded: inefficiency

SMILES: C[n+]1ccccc1C1=C2C=CC3=[N+]2[Mn-]24[n]5c1ccc5-c1ccc([n]12)C(c1cccc[n+]1C)=c1ccc([n]14)=C3c1c(F)c(F)c(F)c(F)c1F (centres unmarked) [4C-Mn, 5,15-bis(N-methyl-2-pyridilium) 10-pentafluorophenyl corrolato manganese(III)]
- kcat, peroxynitrite decomposition rate [2]: 160000 M⁻¹ s⁻¹

SMILES: O=S(=O)(O)c1cc2[n]3c1C(c1c(F)c(F)c(F)c(F)c1F)=C1C=CC4=[N+]1[Cu-]31[n]3c(cc(S(=O)(=O)O)c3-2)C(c2c(F)c(F)c(F)c(F)c2F)=c2ccc([n]21)=C4c1c(F)c(F)c(F)c(F)c1F (centres unmarked) [1C-Cu, 2,17-bis(sulfonato)-5,10,15-tris(pentafluorophenyl)-corrolato copper(III)]
- IC50 [1]: 12 µM

SMILES: C[n+]1ccc(C2=C3C=CC4=[N+]3[Mn-]35[n]6c2ccc6-c2ccc([n]23)C(c2cc[n+](C)cc2)=c2ccc([n]25)=C4c2ccccc2)cc1 (centres unmarked) [2C″-Mn]
- kcat, peroxynitrite decomposition rate [2]: 81000 M⁻¹ s⁻¹

Reference: US20140045809A1, “CORROLES FOR NEUROPROTECTION AND NEURORESCUE” (priority 2008, published 2014)
